For one assay, the target named is 5-HT2A receptors (Rattus norvegicus, UniProt P14842). As to the kind of experiment: in-vitro affinity to 5-HT2A receptors, displacement of [3H]ketanserine (Example A1). Conditions: read-out: HT2A IC50. It is filed as binding. An excerpt:
The 5-HT2A receptors are exposed both to [^3H]ketanserine (a substance which is known for its affinity to the receptor) and also to the test compound. The decrease in the affinity of [^3H]ketanserine to the receptor is an indication of the affinity of the test substance to the 5-HT2A receptor.
A general note: In a radioligand displacement assay an active substance lowers the binding of a labelled ligand.

The target of the next assay is T1, 5 HT2C receptor (Homo sapiens, UniProt P28335).
T1 sequence (P28335 33-458): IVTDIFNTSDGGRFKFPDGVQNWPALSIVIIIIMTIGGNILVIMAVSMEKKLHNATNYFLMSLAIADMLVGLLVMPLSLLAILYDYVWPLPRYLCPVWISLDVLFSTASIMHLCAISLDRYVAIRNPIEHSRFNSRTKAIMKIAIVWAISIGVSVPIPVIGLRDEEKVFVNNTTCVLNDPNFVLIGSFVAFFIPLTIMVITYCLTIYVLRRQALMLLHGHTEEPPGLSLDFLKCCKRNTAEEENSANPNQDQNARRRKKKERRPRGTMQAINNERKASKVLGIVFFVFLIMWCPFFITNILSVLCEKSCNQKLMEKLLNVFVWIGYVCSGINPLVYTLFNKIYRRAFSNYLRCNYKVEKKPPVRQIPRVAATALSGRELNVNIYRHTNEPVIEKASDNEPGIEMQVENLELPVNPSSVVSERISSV
As to the kind of experiment: affinity to the 5 HT2C receptor. The class given is binding.

Sequence of 5-HT2A receptors (P14842 whole entry): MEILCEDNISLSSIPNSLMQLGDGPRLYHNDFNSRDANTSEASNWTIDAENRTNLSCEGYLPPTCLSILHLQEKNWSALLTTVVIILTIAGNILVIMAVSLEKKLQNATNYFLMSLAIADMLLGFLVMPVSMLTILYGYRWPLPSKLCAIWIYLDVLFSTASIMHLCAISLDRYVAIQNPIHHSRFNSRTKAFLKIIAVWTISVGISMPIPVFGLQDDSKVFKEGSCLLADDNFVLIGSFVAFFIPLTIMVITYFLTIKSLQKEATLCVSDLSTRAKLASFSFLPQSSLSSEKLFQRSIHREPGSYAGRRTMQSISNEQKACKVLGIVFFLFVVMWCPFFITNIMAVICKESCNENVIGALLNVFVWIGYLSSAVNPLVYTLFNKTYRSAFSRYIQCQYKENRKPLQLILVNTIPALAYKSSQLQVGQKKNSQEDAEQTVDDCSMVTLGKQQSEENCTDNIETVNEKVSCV

Broadly, the IC50 is the concentration needed to halve the response being measured. As for `CCN1CCN(Cc2cnn(-c3ccc(-c4ccc(F)cc4)cc3)c2-c2ccc(Cl)cc2)CC1` [Example 1037, 1-[5-(4-Chlorophenyl)-1-(4′-fluoro-biphenyl-4-yl)-1H-pyrazol-4-ylmethyl]-4-ethylpiperazine], the results for the IC50 at 5-HT2A receptors and on 5 HT2C receptor were 310 nM and 1000 nM, respectively.

Regarding `O=C1NCN(c2ccccc2)C12CCN(Cc1cnn(-c3ccc(-c4ccccc4)cc3)c1-c1ccccc1F)CC2` [Example 1051, 8-[1-Biphenyl-4-yl-5-(2-fluorophenyl)-1H-pyrazol-4-ylmethyl]-1-phenyl-1,3,8-triaza-spiro[4.5]decan-4-one], the IC50 on 5-HT2A receptors was 400 nM; on 5 HT2C receptor it was 1000 nM.

As for `CC(C)N1CCN(Cc2cnn(-c3ccc(-c4ccc(F)cc4)cc3)c2-c2ccc(Cl)cc2)CC1` [Example 1054, 1-[5-(4-Chlorophenyl)-1-(4′-fluoro-biphenyl-4-yl)-1H-pyrazol-4-ylmethyl]-4-isopropylpiperazine], the IC50 was determined as 440 nM on 5-HT2A receptors and 1000 nM against 5 HT2C receptor.

Consider `COc1ccccc1-c1c(CN2CCN(C)CC2)cnn1-c1ccc(-c2ccsc2)cc1` [Example 1055, 1-[5-(2-Methoxyphenyl)-1-(4-thiophen-3-yl-phenyl)-1H-pyrazol-4-ylmethyl]-4-methyl-piperazine], for which the IC50 on 5-HT2A receptors was determined as 460 nM; against 5 HT2C receptor, 300 nM.

Consider `CN1CCN(Cc2cnn(-c3ccc(-c4ccc(F)cc4)cc3)c2-c2ccc(Cl)cc2)CC1` [Example 1057, 1-[5-(4-Chlorophenyl)-1-(4′-fluoro-biphenyl-4-yl)-1H-pyrazol-4-ylmethyl]-4-methylpiperazine], for which the half-inhibitory concentration (IC50) at 5-HT2A receptors came out at 460 nM; against 5 HT2C receptor, 1000 nM.
